Laboratory results from patent publication US9428514B2, “Bromodomain inhibitors” (AbbVie Inc., priority 2013, dated 2016).

What follows are compounds tested on breast cancer cell line MX-1 (assay: MX-1 cell line proliferation assay (3-day, Cell Titer Glo)). Conditions: Homo sapiens, MX1, MX-1 cells, 72 hours, read-out: Cellular proliferation: EC50.
Assay type: cell-based
Protocol: The impact of compounds of the Examples on cancer cell proliferation was determined using the breast cancer cell line MX-1 (ATCC) in a 3-day proliferation assay. MX-1 cells were maintained in RPMI supplemented with 10% FBS at 37° C. and an atmosphere of 5% CO2. For compound testing, MX-1 cells were plated in 96-well black bottom plates at a density of 5000 cells/well in 90 μL of culture media and incubated at 37° overnight to allow cell adhesion and spreading. Compound dilution series were prepared in DMSO via a 3-fold serial dilution from 3 mM to […]. The DMSO dilution series were then diluted 1:100 in phosphate buffered saline, and 10 μL of the resulted solution were added to the appropriate wells of the MX-1 cell plate. The final compound concentrations in the wells were 3, 1, 0.3, 0.1, 0.03, 0.01, 0.003, 0.001, 0.0003, 0.0001, and 0.00003 μM.
Luminescence readings from the Cell Titer Glo assay were normalized to the DMSO treated cells and analyzed using the GraphPad Prism software with sigmoidal curve fitting to obtain EC50s. The minimum significant ratio (MSR) was determined to evaluate assay reproducibility (Eastwood et al., (2006) J Biomol Screen, 11: 253-261). The overall MSR was determined to be 2.1 and a moving MSR (last six run MSR overtime) has been <2. The EC50 values are reported in Table 1 for the indicated compounds.

Question: With `CCOc1cc(=O)n(C)cc1-c1cc(NC(=O)Cc2cc(F)ccc2Cl)ccc1Oc1ccc(F)cc1F` [Example 1, 2-(2-chloro-5-fluorophenyl)-N-[4-(2,4-difluorophenoxy)-3-(4-ethoxy-1-methyl-6-oxo-1,6-dihydropyridin-3-yl)phenyl]acetamide] as the compound, how does the EC50 read?
Answer: 114 nM

Question: For `CCOc1cc(=O)n(C)cc1-c1cc(NC(=O)Cc2ccc3c(c2)CCCO3)ccc1Oc1ccc(F)cc1F` [Example 2, N-[4-(2,4-difluorophenoxy)-3-(4-ethoxy-1-methyl-6-oxo-1,6-dihydropyridin-3-yl)phenyl]-2-(3,4-dihydro-2H-chromen-6-yl)acetamide], which EC50 is on record?
Answer: 279 nM

Question: Which EC50 does the source give for `CCOc1cc(=O)n(C)cc1-c1cc(NC(=O)Cc2ccc(Cl)cc2F)ccc1Oc1ccc(F)cc1F` [Example 3, 2-(4-chloro-2-fluorophenyl)-N-[4-(2,4-difluorophenoxy)-3-(4-ethoxy-1-methyl-6-oxo-1,6-dihydropyridin-3-yl)phenyl]acetamide] here?
Answer: 433 nM

Question: `CCOc1cc(=O)n(C)cc1-c1cc(NC(=O)Cc2cnn(C)c2)ccc1Oc1ccc(F)cc1F` [Example 4, N-[4-(2,4-difluorophenoxy)-3-(4-ethoxy-1-methyl-6-oxo-1,6-dihydropyridin-3-yl)phenyl]-2-(1-methyl-1H-pyrazol-4-yl)acetamide] was tested. Which EC50 did it give?
Answer: 425 nM

Question: With `CCOc1cc(=O)n(C)cc1-c1cc(NC(=O)Cc2ccc(C)nc2)ccc1Oc1ccc(F)cc1F` [Example 5, N-[4-(2,4-difluorophenoxy)-3-(4-ethoxy-1-methyl-6-oxo-1,6-dihydropyridin-3-yl)phenyl]-2-(6-methylpyridin-3-yl)acetamide] as the compound, how does the EC50 read?
Answer: 681 nM

Question: For `CCOc1cc(=O)n(C)cc1-c1cc(NC(=O)Cc2cc(C)n(C)n2)ccc1Oc1ccc(F)cc1F` [Example 6, N-[4-(2,4-difluorophenoxy)-3-(4-ethoxy-1-methyl-6-oxo-1,6-dihydropyridin-3-yl)phenyl]-2-(1,5-dimethyl-1H-pyrazol-3-yl)acetamide], which EC50 is on record?
Answer: 356 nM

Question: `CCOc1cc(=O)n(C)cc1-c1cc(NC(=O)Cc2cnc(C)s2)ccc1Oc1ccc(F)cc1F` [Example 7, N-[4-(2,4-difluorophenoxy)-3-(4-ethoxy-1-methyl-6-oxo-1,6-dihydropyridin-3-yl)phenyl]-2-(2-methyl-1,3-thiazol-5-yl)acetamide] was tested. Which EC50 did it give?
Answer: 187 nM

Question: Which EC50 does the source give for `CCOc1cc(=O)n(C)cc1-c1cc(NC(=O)Cn2ccc(-c3ccccc3F)n2)ccc1Oc1ccc(F)cc1F` [Example 8, N-[4-(2,4-difluorophenoxy)-3-(4-ethoxy-1-methyl-6-oxo-1,6-dihydropyridin-3-yl)phenyl]-2-[3-(2-fluorophenyl)-1H-pyrazol-1-yl]acetamide] here?
Answer: > 3000 nM

Question: For `CCOc1cc(=O)n(C)cc1-c1cc(NCCCn2cccn2)ccc1Oc1ccc(F)cc1F` [Example 9, 5-[2-(2,4-difluorophenoxy)-5-{[3-(1H-pyrazol-1-yl)propyl]amino}phenyl]-4-ethoxy-1-methylpyridin-2(1H)-one], which EC50 is on record?
Answer: 746 nM

Question: For `CCOc1cc(=O)n(C)cc1-c1cc(NCc2cn3c(n2)CCC3)ccc1Oc1ccc(F)cc1F` [Example 10, 5-{2-(2,4-difluorophenoxy)-5-[(6,7-dihydro-5H-pyrrolo[1,2-a]imidazol-2-ylmethyl)amino]phenyl}-4-ethoxy-1-methylpyridin-2(1H)-one], which EC50 is on record?
Answer: 1890 nM

Question: For `CCOc1cc(=O)n(C)cc1-c1cc(NCc2cccc(C)n2)ccc1Oc1ccc(F)cc1F` [Example 11, 5-[2-(2,4-difluorophenoxy)-5-{[(6-methylpyridin-2-yl)methyl]amino}phenyl]-4-ethoxy-1-methylpyridin-2(1H)-one], which EC50 is on record?
Answer: 884 nM

Question: For `CCOc1cc(=O)n(C)cc1-c1cc(NCc2ncccc2C)ccc1Oc1ccc(F)cc1F` [Example 12, 5-[2-(2,4-difluorophenoxy)-5-{[(3-methylpyridin-2-yl)methyl]amino}phenyl]-4-ethoxy-1-methylpyridin-2(1H)-one], which EC50 is on record?
Answer: 1020 nM

Question: For `CCOc1cc(=O)n(C)cc1-c1cc(NCc2ccnn2C)ccc1Oc1ccc(F)cc1F` [Example 13, 5-[2-(2,4-difluorophenoxy)-5-{[(1-methyl-1H-pyrazol-5-yl)methyl]amino}phenyl]-4-ethoxy-1-methylpyridin-2(1H)-one], which EC50 is on record?
Answer: 1480 nM

Question: How did the EC50 turn out when `CCOc1cc(=O)n(C)cc1-c1cc(NCCCC(=O)OC)ccc1Oc1ccc(F)cc1F` [Example 14, methyl 4-{[4-(2,4-difluorophenoxy)-3-(4-ethoxy-1-methyl-6-oxo-1,6-dihydropyridin-3-yl)phenyl]amino}butanoate] was run?
Answer: 111 nM

Question: How did the EC50 turn out when `CCOc1cc(=O)n(C)cc1-c1cc(NC(=O)Nc2ccc(C)cc2C)ccc1Oc1ccc(F)cc1F` [Example 16, 1-[4-(2,4-difluorophenoxy)-3-(4-ethoxy-1-methyl-6-oxo-1,6-dihydropyridin-3-yl)phenyl]-3-(2,4-dimethylphenyl)urea] was run?
Answer: > 3000 nM

Question: Which EC50 does the source give for `CCOc1cc(=O)n(C)cc1-c1cc(NC(=O)Nc2cc(C)ccc2C)ccc1Oc1ccc(F)cc1F` [Example 19, 1-[4-(2,4-difluorophenoxy)-3-(4-ethoxy-1-methyl-6-oxo-1,6-dihydropyridin-3-yl)phenyl]-3-(2,5-dimethylphenyl)urea] here?
Answer: 557 nM

Question: For `CCOc1cc(=O)n(C)cc1-c1cc(NCc2cnco2)ccc1Oc1ccc(F)cc1F` [Example 23, 5-{2-(2,4-difluorophenoxy)-5-[(1,3-oxazol-5-ylmethyl)amino]phenyl}-4-ethoxy-1-methylpyridin-2(1H)-one], which EC50 is on record?
Answer: > 3000 nM

Question: With `CCOc1cc(=O)n(C)cc1-c1cc(NCc2cncn2C)ccc1Oc1ccc(F)cc1F` [Example 24, 5-[2-(2,4-difluorophenoxy)-5-{[(1-methyl-1H-imidazol-5-yl)methyl]amino}phenyl]-4-ethoxy-1-methylpyridin-2(1H)-one] as the compound, how does the EC50 read?
Answer: 832 nM

Question: For `CCOc1cc(=O)n(C)cc1-c1cc(NCc2ccn(CC)n2)ccc1Oc1ccc(F)cc1F` [Example 25, 5-[2-(2,4-difluorophenoxy)-5-{[(1-ethyl-1H-pyrazol-3-yl)methyl]amino}phenyl]-4-ethoxy-1-methylpyridin-2(1H)-one], which EC50 is on record?
Answer: 1540 nM

Question: For `CCOc1cc(=O)n(C)cc1-c1cc(NC(=O)CCS(=O)(=O)c2ccccc2)ccc1Oc1ccc(F)cc1F` [Example 27, N-[4-(2,4-difluorophenoxy)-3-(4-ethoxy-1-methyl-6-oxo-1,6-dihydropyridin-3-yl)phenyl]-3-(phenylsulfonyl)propanamide], which EC50 is on record?
Answer: 730 nM

Question: With `CCOc1cc(=O)n(C)cc1-c1cc(NC(=O)Cc2cccc(Oc3ccccc3)c2)ccc1Oc1ccc(F)cc1F` [Example 28, N-[4-(2,4-difluorophenoxy)-3-(4-ethoxy-1-methyl-6-oxo-1,6-dihydropyridin-3-yl)phenyl]-2-(3-phenoxyphenyl)acetamide] as the compound, how does the EC50 read?
Answer: 605 nM

Question: `CCOc1cc(=O)n(C)cc1-c1cc(NC(=O)Cc2ccc(S(C)(=O)=O)cc2)ccc1Oc1ccc(F)cc1F` [Example 29, N-[4-(2,4-difluorophenoxy)-3-(4-ethoxy-1-methyl-6-oxo-1,6-dihydropyridin-3-yl)phenyl]-2-[4-(methylsulfonyl)phenyl]acetamide] was tested. Which EC50 did it give?
Answer: 433 nM

Question: How did the EC50 turn out when `CCOc1cc(=O)n(C)cc1-c1cc(NC(=O)CCOc2ccccc2)ccc1Oc1ccc(F)cc1F` [Example 30, N-[4-(2,4-difluorophenoxy)-3-(4-ethoxy-1-methyl-6-oxo-1,6-dihydropyridin-3-yl)phenyl]-3-phenoxypropanamide] was run?
Answer: > 3000 nM

Question: For `CCOc1cc(=O)n(C)cc1-c1cc(NC(=O)COc2ccc(C)cc2)ccc1Oc1ccc(F)cc1F` [Example 33, N-[4-(2,4-difluorophenoxy)-3-(4-ethoxy-1-methyl-6-oxo-1,6-dihydropyridin-3-yl)phenyl]-2-(4-methylphenoxy)acetamide], which EC50 is on record?
Answer: 464 nM

Question: `CCOc1cc(=O)n(C)cc1-c1cc(NC(=O)COCc2ccccc2)ccc1Oc1ccc(F)cc1F` [Example 35, 2-(benzyloxy)-N-[4-(2,4-difluorophenoxy)-3-(4-ethoxy-1-methyl-6-oxo-1,6-dihydropyridin-3-yl)phenyl]acetamide] was tested. Which EC50 did it give?
Answer: 375 nM

Question: With `CCOc1cc(=O)n(C)cc1-c1cc(NC(=O)Cc2noc3ccccc23)ccc1Oc1ccc(F)cc1F` [Example 36, 2-(1,2-benzoxazol-3-yl)-N-[4-(2,4-difluorophenoxy)-3-(4-ethoxy-1-methyl-6-oxo-1,6-dihydropyridin-3-yl)phenyl]acetamide] as the compound, how does the EC50 read?
Answer: 476 nM

Question: `CCOc1cc(=O)n(C)cc1-c1cc(NC(=O)Cc2ccc(Oc3ccccc3)cc2)ccc1Oc1ccc(F)cc1F` [Example 37, N-[4-(2,4-difluorophenoxy)-3-(4-ethoxy-1-methyl-6-oxo-1,6-dihydropyridin-3-yl)phenyl]-2-(4-phenoxyphenyl)acetamide] was tested. Which EC50 did it give?
Answer: 1440 nM

Question: For `CCOc1cc(=O)n(C)cc1-c1cc(NC(=O)CCCc2ccccc2)ccc1Oc1ccc(F)cc1F` [Example 38, N-[4-(2,4-difluorophenoxy)-3-(4-ethoxy-1-methyl-6-oxo-1,6-dihydropyridin-3-yl)phenyl]-4-phenylbutanamide], which EC50 is on record?
Answer: 779 nM

Question: With `CCOc1cc(=O)n(C)cc1-c1cc(NC(=O)Cc2ccc3ccccc3c2)ccc1Oc1ccc(F)cc1F` [Example 39, N-[4-(2,4-difluorophenoxy)-3-(4-ethoxy-1-methyl-6-oxo-1,6-dihydropyridin-3-yl)phenyl]-2-(naphthalen-2-yl)acetamide] as the compound, how does the EC50 read?
Answer: 595 nM

Question: `CCOc1cc(=O)n(C)cc1-c1cc(NC(=O)CCc2ccccc2)ccc1Oc1ccc(F)cc1F` [Example 41, N-[4-(2,4-difluorophenoxy)-3-(4-ethoxy-1-methyl-6-oxo-1,6-dihydropyridin-3-yl)phenyl]-3-phenylpropanamide] was tested. Which EC50 did it give?
Answer: 398 nM
